Laboratory results as given in ChEMBL document CHEMBL3885861, “Open TG-GATES”.
“And” between values parts separate entries of the source, which are not always exact repeats. Equal entries are not always repeated.

Organism: Rattus norvegicus
Assay: Open TG-GATES - Regimen: Single
Assay type: toxicity, organism-based, Sprague-Dawley
Set-up: regimen Single, gender Male, age 6 weeks
Settings: in vivo, po, route gavage; for LIVER: tissue Liver; for ALP / ALT / AST / BUN / CRE / Ca / Cl / GLC / IP / K / LDH / Na / PL / RALB / TC / TP / gamma-GTP / DBIL / TBIL: tissue Plasma; for APTT / Bas / Eos / Fbg / Hb / Ht / Lym / MCH / MCHC / MCV / Mono / Neu / PT / Plat / RBC / Ret / WBC: tissue Blood; for KIDNEY_L / KIDNEY_R / KIDNEY_TOTAL: tissue Kidney
[1] = 0 mg/kg, 24 h, dose level Control

In the case of `O=P1(N(CCCl)CCCl)NCCCO1` (stereo unspecified) [CYCLOPHOSPHAMIDE ANHYDROUS], the LIVER [1] is reported as 9.8 g and 8.7 g, the ALP [1] is reported as 1816 IU/L and 1543.8 IU/L and the ALT [1] is reported as 45.6 IU/L and 38 IU/L. The AST [1] was 71.2 IU/L and 71.6 IU/L, the BUN [1] was 16.4 mg/dL and 13.6 mg/dL and the CRE [1] was 0.2 mg/dL. For the same compound, the Ca [1] was 10.7 mg/dL and 11.1 mg/dL, the Cl [1] was 104.8 meq/L and 105.8 meq/L and the GLC [1] was 189.6 mg/dL and 178.8 mg/dL. For the same compound, the IP [1] was 7.3 mg/dL and 7.8 mg/dL, the K [1] was 4.4 meq/L and the LDH [1] was 192.2 IU/L and 79 IU/L. The Na [1] was 142.6 meq/L and 141 meq/L, the PL [1] was 161.6 mg/dL and 160.8 mg/dL and the RALB [1] was 2.9 g/dL and 2.6 g/dL. For the same compound, the TC [1] was 82 mg/dL and 82.6 mg/dL, the TP [1] was 5.4 g/dL and 5.6 g/dL and the gamma-GTP [1] was 1.2 IU/L. For the same compound, the TERMINAL_BW (2 mg/kg, 3 h, dose level Low) was 191.9 g, the APTT (2 mg/kg, 3 h, dose level Low) was 22.6 s and the Bas (2 mg/kg, 3 h, dose level Low) was 0%. It also gave an Eos (2 mg/kg, 3 h, dose level Low) of 0.4%, a Fbg (2 mg/kg, 3 h, dose level Low) of 284.6 mg/dL and a Hb (2 mg/kg, 3 h, dose level Low) of 13.1 g/dL. The Ht (2 mg/kg, 3 h, dose level Low) was 39.2%, the Lym (2 mg/kg, 3 h, dose level Low) was 85.4% and the MCH (2 mg/kg, 3 h, dose level Low) was 21.8 pg. The MCHC (2 mg/kg, 3 h, dose level Low) was 33.3%, the MCV (2 mg/kg, 3 h, dose level Low) was 65.4 fL and the Mono (2 mg/kg, 3 h, dose level Low) was 1.4%. The Neu (2 mg/kg, 3 h, dose level Low) was 12.4%, the PT (2 mg/kg, 3 h, dose level Low) was 15.9 s and the Plat (2 mg/kg, 3 h, dose level Low) was 119.4 x10_4/uL. It also gave an RBC (2 mg/kg, 3 h, dose level Low) of 600.4 x10_4/ul, a Ret (2 mg/kg, 3 h, dose level Low) of 8.8% and a WBC (2 mg/kg, 3 h, dose level Low) of 81 x10_2/uL. It also gave a KIDNEY_L (2 mg/kg, 3 h, dose level Low) of 0.9 g, a KIDNEY_R (2 mg/kg, 3 h, dose level Low) of 0.9 g and a KIDNEY_TOTAL (2 mg/kg, 3 h, dose level Low) of 1.8 g. For the same compound, the LIVER (2 mg/kg, 3 h, dose level Low) was 9 g, the ALP (2 mg/kg, 3 h, dose level Low) was 1623.4 IU/L and the ALT (2 mg/kg, 3 h, dose level Low) was 42.2 IU/L. The AST (2 mg/kg, 3 h, dose level Low) was 73.4 IU/L, the BUN (2 mg/kg, 3 h, dose level Low) was 12.4 mg/dL and the CRE (2 mg/kg, 3 h, dose level Low) was 0.1 mg/dL. The Ca (2 mg/kg, 3 h, dose level Low) was 10.8 mg/dL, the Cl (2 mg/kg, 3 h, dose level Low) was 107.2 meq/L and the DBIL (2 mg/kg, 3 h, dose level Low) was 0 mg/dL. The GLC (2 mg/kg, 3 h, dose level Low) was 190 mg/dL, the IP (2 mg/kg, 3 h, dose level Low) was 7.9 mg/dL and the K (2 mg/kg, 3 h, dose level Low) was 4.1 meq/L. The LDH (2 mg/kg, 3 h, dose level Low) was 181.4 IU/L, the Na (2 mg/kg, 3 h, dose level Low) was 144 meq/L and the PL (2 mg/kg, 3 h, dose level Low) was 119.2 mg/dL. The RALB (2 mg/kg, 3 h, dose level Low) was 2.9 g/dL, the TBIL (2 mg/kg, 3 h, dose level Low) was 0.022 mg/dL and the TC (2 mg/kg, 3 h, dose level Low) was 64.4 mg/dL. It also gave a TP (2 mg/kg, 3 h, dose level Low) of 5.2 g/dL, a gamma-GTP (2 mg/kg, 3 h, dose level Low) of 1 IU/L and a TERMINAL_BW (2 mg/kg, 6 h, dose level Low) of 187.4 g. For the same compound, the APTT (2 mg/kg, 6 h, dose level Low) was 21.7 s, the Bas (2 mg/kg, 6 h, dose level Low) was 0% and the Eos (2 mg/kg, 6 h, dose level Low) was 0.8%. The Fbg (2 mg/kg, 6 h, dose level Low) was 301.4 mg/dL, the Hb (2 mg/kg, 6 h, dose level Low) was 13.1 g/dL and the Ht (2 mg/kg, 6 h, dose level Low) was 39.4%. It also gave a Lym (2 mg/kg, 6 h, dose level Low) of 76.2%, an MCH (2 mg/kg, 6 h, dose level Low) of 21.4 pg and an MCHC (2 mg/kg, 6 h, dose level Low) of 33.4%. For the same compound, the MCV (2 mg/kg, 6 h, dose level Low) was 64.2 fL, the Mono (2 mg/kg, 6 h, dose level Low) was 2.2% and the Neu (2 mg/kg, 6 h, dose level Low) was 20.2%. For the same compound, the PT (2 mg/kg, 6 h, dose level Low) was 16 s, the Plat (2 mg/kg, 6 h, dose level Low) was 121.6 x10_4/uL and the RBC (2 mg/kg, 6 h, dose level Low) was 613.6 x10_4/ul. The Ret (2 mg/kg, 6 h, dose level Low) was 8.5%, the WBC (2 mg/kg, 6 h, dose level Low) was 94.5 x10_2/uL and the KIDNEY_L (2 mg/kg, 6 h, dose level Low) was 0.9 g. For the same compound, the KIDNEY_R (2 mg/kg, 6 h, dose level Low) was 0.9 g, the KIDNEY_TOTAL (2 mg/kg, 6 h, dose level Low) was 1.7 g and the LIVER (2 mg/kg, 6 h, dose level Low) was 8 g. The ALP (2 mg/kg, 6 h, dose level Low) was 1350.2 IU/L, the ALT (2 mg/kg, 6 h, dose level Low) was 39.2 IU/L and the AST (2 mg/kg, 6 h, dose level Low) was 69.2 IU/L. For the same compound, the BUN (2 mg/kg, 6 h, dose level Low) was 10.2 mg/dL, the CRE (2 mg/kg, 6 h, dose level Low) was 0.1 mg/dL and the Ca (2 mg/kg, 6 h, dose level Low) was 10.6 mg/dL. The Cl (2 mg/kg, 6 h, dose level Low) was 106.8 meq/L, the DBIL (2 mg/kg, 6 h, dose level Low) was 0 mg/dL and the GLC (2 mg/kg, 6 h, dose level Low) was 184.8 mg/dL. The IP (2 mg/kg, 6 h, dose level Low) was 9.4 mg/dL, the K (2 mg/kg, 6 h, dose level Low) was 4.4 meq/L and the LDH (2 mg/kg, 6 h, dose level Low) was 195.2 IU/L. For the same compound, the Na (2 mg/kg, 6 h, dose level Low) was 142.8 meq/L, the PL (2 mg/kg, 6 h, dose level Low) was 136.8 mg/dL and the RALB (2 mg/kg, 6 h, dose level Low) was 2.9 g/dL. For the same compound, the TBIL (2 mg/kg, 6 h, dose level Low) was 0.032 mg/dL, the TC (2 mg/kg, 6 h, dose level Low) was 78.2 mg/dL and the TP (2 mg/kg, 6 h, dose level Low) was 5.3 g/dL. It also gave a gamma-GTP (2 mg/kg, 6 h, dose level Low) of 1.2 IU/L, a TERMINAL_BW (2 mg/kg, 9 h, dose level Low) of 193.9 g and an APTT (2 mg/kg, 9 h, dose level Low) of 20.9 s. For the same compound, the Bas (2 mg/kg, 9 h, dose level Low) was 0%, the Eos (2 mg/kg, 9 h, dose level Low) was 0.6% and the Fbg (2 mg/kg, 9 h, dose level Low) was 312.6 mg/dL. For the same compound, the Hb (2 mg/kg, 9 h, dose level Low) was 12.9 g/dL, the Ht (2 mg/kg, 9 h, dose level Low) was 38.9% and the Lym (2 mg/kg, 9 h, dose level Low) was 76.4%. The MCH (2 mg/kg, 9 h, dose level Low) was 21.2 pg, the MCHC (2 mg/kg, 9 h, dose level Low) was 33.1% and the MCV (2 mg/kg, 9 h, dose level Low) was 64.1 fL. The Mono (2 mg/kg, 9 h, dose level Low) was 1.6%, the Neu (2 mg/kg, 9 h, dose level Low) was 20.6% and the PT (2 mg/kg, 9 h, dose level Low) was 16.1 s. For the same compound, the Plat (2 mg/kg, 9 h, dose level Low) was 120.1 x10_4/uL, the RBC (2 mg/kg, 9 h, dose level Low) was 607.2 x10_4/ul and the Ret (2 mg/kg, 9 h, dose level Low) was 8.3%. The WBC (2 mg/kg, 9 h, dose level Low) was 83.5 x10_2/uL, the KIDNEY_L (2 mg/kg, 9 h, dose level Low) was 0.9 g and the KIDNEY_R (2 mg/kg, 9 h, dose level Low) was 0.9 g. It also gave a KIDNEY_TOTAL (2 mg/kg, 9 h, dose level Low) of 1.8 g, an LIVER (2 mg/kg, 9 h, dose level Low) of 8.3 g and an ALP (2 mg/kg, 9 h, dose level Low) of 1429.8 IU/L. For the same compound, the ALT (2 mg/kg, 9 h, dose level Low) was 36.4 IU/L, the AST (2 mg/kg, 9 h, dose level Low) was 69 IU/L and the BUN (2 mg/kg, 9 h, dose level Low) was 10.2 mg/dL. For the same compound, the CRE (2 mg/kg, 9 h, dose level Low) was 0.2 mg/dL, the Ca (2 mg/kg, 9 h, dose level Low) was 10.7 mg/dL and the Cl (2 mg/kg, 9 h, dose level Low) was 106.4 meq/L. The DBIL (2 mg/kg, 9 h, dose level Low) was 0 mg/dL, the GLC (2 mg/kg, 9 h, dose level Low) was 179.2 mg/dL and the IP (2 mg/kg, 9 h, dose level Low) was 10.1 mg/dL. It also gave a K (2 mg/kg, 9 h, dose level Low) of 4 meq/L, an LDH (2 mg/kg, 9 h, dose level Low) of 221 IU/L and a Na (2 mg/kg, 9 h, dose level Low) of 143.4 meq/L. For the same compound, the PL (2 mg/kg, 9 h, dose level Low) was 142.4 mg/dL, the RALB (2 mg/kg, 9 h, dose level Low) was 3.1 g/dL and the TBIL (2 mg/kg, 9 h, dose level Low) was 0.036 mg/dL. The TC (2 mg/kg, 9 h, dose level Low) was 81.2 mg/dL, the TP (2 mg/kg, 9 h, dose level Low) was 5.4 g/dL and the gamma-GTP (2 mg/kg, 9 h, dose level Low) was 1 IU/L.
